# From patent US10280139B2, “Cytotoxic peptides and conjugates thereof” (priority 2014, dated 2019)
# Tested on: MDA-MB-231 clone 16, MDA-MB-231 clone 40, JimT-1 and HCC1954 cells
# Experiment: Cell proliferation assays of anti-Her2 ADCs, results in words over the cell line panel
# Type: cell-based, human
# Conditions: Her2 high, medium and low cell lines
# Excerpt: Cells that naturally express target antigens or cell lines engineered to express target antigens are frequently used to assay the activity and potency of ADCs. For evaluation of the cell killing potency of anti-Her2 antibody ADCs in vitro, two engineered cell lines, MDA-MB-231 clone 16 and clone 40, and two endogenous cell lines, JimT-1 and HCC1954 cells were employed (Clinchy B, Gazdar A, Rabinovsky R, Yefenof E, Gordon B, Vitetta E S. Breast Cancer Res Treat. (2000) 61:217-228). MDA-MB-231 clone 16 cells stably express high copy numbers (˜5×10^5copies/cell) of recombinant human Her2 on the cell surface, while clone 40 expresses human Her2 at low levels (˜5×10^3 copies/cell). HCC1954 cells endogenously express high levels (˜5×10^5 copies/cell) of […] human Her2 in the surface while JimT-1 cells express human Her2 at a medium level (˜8×10^4 copies/cell). NCI-N87 cells express high levels of Her2 while A375 cell express low levels of Her2. An ADC should kill cells in an antigen-dependent manner, meaning that only cells that express sufficient antigen in the cell surface but not cells lacking the antigen will be killed. Therefore cell killing should not be observed MDA-MB-231 clone 40 cells.
# (§1) To measure antigen-dependent cell killing, cell proliferation assays were conducted with Cell-Titer-Glo™ (Promega) five days after different cell types were incubated with various concentrations of ADCs (Riss et al., (2004) Assay Drug Dev Technol. 2:51-62).
# Anti-Her2 ADCs prepared with compounds of the invention and conjugated site-specifically to anti-Her2 Cys mutant antibodies (see Table 5) were assayed in the aforementioned four cell lines to evaluate their cytotoxicity. […] In JimT-1 cells, a cell line with a medium level of Her2 expression, the cell killing activities by the ADCs varied widely. […] Many ADCs killed JimT-1 cell as effectively as HCC1954 and MDAMB231-16 cells (FIG. 1, Table 15). […] The significant differences of cytotoxic potency observed in JimT-1 cell amoung anti-Her2-LC-S159C ADCs have made it possible to rank the potency of the payloads. […] This is in contrast to the in vitro cell killing of both high and low Her2 expressing cell lines by free, unconjugated compounds of the invention (see Example 106,Table 14).
row,SMILES,Cell killing activity of anti-Her2 ADCs
1,"CC[C@H](C)[C@@H]([C@@H](CC(=O)N1CCC[C@H]1[C@H](OC)[C@@H](C)C(=O)N[C@@H](Cc1ccccc1)C(=O)Nc1ccc(CNC(=O)CCCCCN2C(=O)C=CC2=O)cc1)OC)N(C)C(=O)[C@@H](/N=C(\N(C)C)N1CCNCC1)C(C)C [CL-5, N-(4-((S)-2-((2R,3R)-3-((S)-1-((3R,4S,5S)-4-((S)-2-((E)-((dimethylamino)(piperazin-1-yl)methylene)amino)-N,3-dimethylbutanamido)-3-methoxy-5-methylheptanoyl)pyrrolidin-2-yl)-3-methoxy-2-methylpropanamido)-3-phenylpropanamido)benzyl)-6-(2,5-dioxo-2,5-dihydro-1H-pyrrol-1-yl)hexanamide]",active in HCC1954 and MDAMB231-16 cells but not in JimT-1 cells
2,"CC[C@H](C)[C@@H]([C@@H](CC(=O)N1CCC[C@H]1[C@H](OC)[C@@H](C)C(=O)N[C@@H](Cc1ccccc1)P(=O)(O)O)OC)N(C)C(=O)[C@@H](/N=C(\N(C)C)N1CCN(C(=O)CCCn2cc(CN3C(=O)C=CC3=O)nn2)CC1)C(C)C [NL-21, ((R)-1-((2R,3R)-3-((S)-1-((3R,4S,5S)-4-((S)-2-((E)-((dimethylamino)(4-(4-(4-((2,5-dioxo-2,5-dihydro-1H-pyrrol-1-yl)methyl)-1H-1,2,3-triazol-1-yl)butanoyl)piperazin-1-yl)methylene)amino)-N,3-dimethylbutanamido)-3-methoxy-5-methylheptanoyl)pyrrolidin-2-yl)-3-methoxy-2-methylpropanamido)-2-phenylethyl)phosphonic acid]",active in HCC1954 and MDAMB231-16 cells but not in JimT-1 cells
3,"CC[C@H](C)[C@@H]([C@@H](CC(=O)N1CCC[C@H]1[C@H](OC)[C@@H](C)C(=O)N[C@@H](Cc1ccccc1)C(=O)O)OC)N(C)C(=O)[C@@H](Nc1nc(C)cc(C(=O)NCCNC(=O)CCCCCN2C(=O)C=CC2=O)n1)C(C)C [NL-38, (S)-2-((2R,3R)-3-((S)-1-((3R,4S,5S)-4-((S)-2-((4-((2-(6-(2,5-dioxo-2,5-dihydro-1H-pyrrol-1-yl)hexanamido)ethyl)carbamoyl)-6-methylpyrimidin-2-yl)amino)-N,3-dimethylbutanamido)-3-methoxy-5-methylheptanoyl)pyrrolidin-2-yl)-3-methoxy-2-methylpropanamido)-3-phenylpropanoic acid]",active in HCC1954 and MDAMB231-16 cells but not in JimT-1 cells
4,"CC[C@H](C)[C@@H]([C@@H](CC(=O)N1CCC[C@H]1[C@H](OC)[C@@H](C)C(=O)N[C@@H](Cc1ccccc1)P(=O)(O)O)OC)N(C)C(=O)[C@@H](N=C(N(C)C)N1CCN(C(=O)CCCCCN2C(=O)C=CC2=O)CC1)C(C)C (stereo in doubt) [NL-19, ((R)-1-((2R,3R)-3-((S)-1-((3R,4S,5S)-4-((S)-2-((E)-((dimethylamino)(4-(6-(2,5-dioxo-2,5-dihydro-1H-pyrrol-1-yl)hexanoyl)piperazin-1-yl)methylene)amino)-N,3-dimethylbutanamido)-3-methoxy-5-methylheptanoyl)pyrrolidin-2-yl)-3-methoxy-2-methylpropanamido)-2-phenylethyl)phosphonic acid]",active in HCC1954 and MDAMB231-16 cells but not in JimT-1 cells
5,"CC[C@H](C)[C@@H]([C@@H](CC(=O)N1CCC[C@H]1[C@H](OC)[C@@H](C)C(=O)N[C@@H](Cc1ccccc1)C(=O)NS(=O)(=O)CCCn1cc(CN2C(=O)C=CC2=O)nn1)OC)N(C)C(=O)[C@@H](Nc1nccc(C)n1)C(C)C [CL-24, (S)-2-((4-methylpyrimidin-2-yl)amino)-1-(((3R,4S,5S)-1-((S)-2-((1R,2R)-3-(((S)-N-1-(3-(4-((2,5-dioxo-2,5-dihydro-1H-pyrrol-1-yl)methyl)-1H-1,2,3-triazol-1-yl)propylsulfonamido)-1-oxo-3-phenylpropan-2-yl)amino)-1-methoxy-2-methyl-3-oxopropyl)pyrrolidin-1-yl)-3-methoxy-5-methyl-1-oxoheptan-4-yl)(methyl)amino)-3-methyl-1-oxobutane]",active in HCC1954 and MDAMB231-16 cells but not in JimT-1 cells
6,"CC[C@H](C)[C@@H]([C@@H](CC(=O)N1CCC[C@H]1[C@H](OC)[C@@H](C)C(=O)N[C@@H](Cc1ccccc1)C(=O)O)OC)N(C)C(=O)[C@@H](NC(=O)N(CCCNC(=O)CCCCCN1C(=O)C=CC1=O)C(C)C)C(C)C [NL-30, (S)-2-((2R,3R)-3-((S)-1-((3R,4S,7S)-4-((S)-sec-butyl)-20-(2,5-dioxo-2,5-dihydro-1H-pyrrol-1-yl)-7,10-diisopropyl-3-methoxy-5-methyl-6,9,15-trioxo-5,8,10,14-tetraazaicosan-1-oyl)pyrrolidin-2-yl)-3-methoxy-2-methylpropanamido)-3-phenylpropanoic acid]",active in HCC1954 and MDAMB231-16 cells but not in JimT-1 cells

# Tested on: H526, KU812, CMK11-5 and Jurkat cells
# Experiment: Cell proliferation assays of antibody 20507 ADCs, results in words over the cell line panel
# Type: cell-based, human
# Conditions: antigen expressing cells versus Jurkat
# Method: as §1
row,SMILES,Cell killing activity of antibody 20507 ADCs
1,"CC[C@H](C)C([C@@H](CC(=O)N1CCC[C@H]1[C@H](OC)[C@@H](C)C(=O)N[C@@H](Cc1ccccc1)C(=O)NS(=O)(=O)CCCn1cc(CN2C(=O)C=CC2=O)nn1)OC)N(C)C(=O)[C@@H](N=C(N(C)C)N(C)C)C(C)C (stereo partly drawn) [CL-9, (S)-2-((Bis(dimethylamino)methylene)amino)-1-(((3R,4S,5S)-1-((S)-2-((1R,2R)-3-(((S)-N-1-(3-(4-((2,5-dioxo-2,5-dihydro-1H-pyrrol-1-yl)methyl)-1H-1,2,3-triazol-1-yl)propylsulfonamido)-1-oxo-3-phenylpropan-2-yl)amino)-1-methoxy-2-methyl-3-oxopropyl)pyrrolidin-1-yl)-3-methoxy-5-methyl-1-oxoheptan-4-yl)(methyl)amino)-3-methyl-1-oxobutane]",active when conjugated to antibody 20507
2,"CC[C@H](C)[C@@H]([C@@H](CC(=O)N1CCC[C@H]1[C@H](OC)[C@@H](C)C(=O)N[C@@H](Cc1ccccc1)C(=O)O)OC)N(C)C(=O)[C@@H](/N=C(\N(C)C)N1CCN(C(=O)CCCCCN2C(=O)C=CC2=O)CC1)C(C)C [NL-4, (S)-2-((2R,3R)-3-((S)-1-((3R,4S,5S)-4-((S)-2-((E)-((dimethylamino)(4-(6-(2,5-dioxo-2,5-dihydro-1H-pyrrol-1-yl)hexanoyl)piperazin-1-yl)methylene)amino)-N,3-dimethylbutanamido)-3-methoxy-5-methylheptanoyl)pyrrolidin-2-yl)-3-methoxy-2-methylpropanamido)-3-phenylpropanoic acid]",active when conjugated to antibody 20507
3,"CC[C@H](C)[C@@H]([C@@H](CC(=O)N1CCC[C@H]1[C@H](OC)[C@@H](C)C(=O)N[C@H](Cc1ccccc1)C(=O)Nc1ccc(CNC(=O)CCCCCN2C(=O)C=CC2=O)cc1)OC)N(C)C(=O)[C@@H](N=C(N(C)C)N(C)C)C(C)C [CL-1, N-(4-((R)-2-((2R,3R)-3-((S)-1-((3R,4S,5S)-4-((S)-2-((bis(dimethylamino)methylene)amino)-N,3-dimethylbutanamido)-3-methoxy-5-methylheptanoyl)pyrrolidin-2-yl)-3-methoxy-2-methylpropanamido)-3-phenylpropanamido)benzyl)-6-(2,5-dioxo-2,5-dihydro-1H-pyrrol-1-yl)hexanamide]",active when conjugated to antibody 20507
